Experimental data taken from ChEMBL document CHEMBL3603834, “Syntheses and Biological Evaluation of Costunolide, Parthenolide, and Their Fluorinated Analogues” (J Med Chem, 2015).

Experiments:
[1] = tested on: HL-60; assay: Cytotoxicity against human HL60/A cells; format: functional, cell-based
[2] = Chemical stability of the compound in p-toluenesulfonic acid in dichloromethane after 48 hrs; format: physicochemical
[3] = Cytotoxicity against human KG1a cells; format: functional, cell-based; settings: KG-1a
[4] = tested on: HL-60; assay: Cytotoxicity against human HL60 cells; format: functional, cell-based
[5] = tested on: C6; assay: Cytotoxicity against rat C6 cells; format: functional, cell-based
[6] = Half life in rat plasma; format: ADME, cell-free
[7] = Half life in human liver microsomes by HPLC-MS/MS analysis in presence of NADPH; format: ADME
[8] = Metabolic stability in rat plasma assessed as compound degradation after 420 mins; format: ADME, cell-free; settings: read-out: Drug degradation

Stability [2] | half-life [6] [h] | half-life [7] [h] | metabolised at 7 h [8] [%] | SMILES | IC50 [1] [µM] | IC50 [3] [µM] | IC50 [4] [µM] | IC50 [5] [µM]
Stable |  |  |  | C=C1C(=O)O[C@H]2[C@H]1CC/C(CF)=C\CC[C@@]1(C)O[C@@H]21 | 1.5 | 2.9 | 2 | 2.8
Stable |  |  |  | C=C1CC[C@H]2C(=C)C(=O)O[C@@H]2[C@@H]2O[C@]2(C)CCC1F (some centres undefined) | 9.2 | 8.6 | 11.9 | 11.3
Stable |  |  |  | C=C1C(=O)O[C@H]2[C@H]1CC/C(C(F)F)=C\CC[C@@]1(C)O[C@@H]21 | 2.1 | 1.8 | 2 | 3.4
Stable | 0.338 | 1.43 |  | C=C1C(=O)O[C@H]2[C@H]1CC/C(C(F)(F)F)=C\CC[C@@]1(C)O[C@@H]21 | 2 | 2 | 2.1 | 3
 |  |  |  | C=C1C(=O)O[C@@H]2/C=C(\C)CC/C=C(/C(F)(F)F)CC[C@@H]12 | 4.9 | 5.1 | 5 | 5.4
Unstable | 0.278 | 1.39 |  | C=C1C(=O)O[C@@H]2C3O[C@]3(C)CC/C=C(\C)CC[C@@H]12 (some centres undefined) | 2 | 2.3 | 2 | 2.5
 | > 7 |  | 20 | C/C1=C\CC[C@@]2(C)O[C@H]2[C@H]2OC(=O)[C@@H](C)[C@@H]2CC1 |  |  |  | 
 |  |  |  | C=C1C(=O)O[C@@H]2/C=C(\C)CC/C=C(\C)CC[C@@H]12 [COSTUNOLIDE] | 5.9 | 4.1 | 2.1 | 4.1
